Data as given in patent US8999935B2, “Treatment of osteoporosis in peri- and post-menopausal women with hepcidin” (New York University, priority 2009, dated 2015).

Assays:
[1] = tested on: MCF-7 cells; test: VEGF formation in MCF-7 cell cultures; type: cell-based; settings: 24-hr treatment
Description: Due to the deficit of appropriate animal models that recapitulate estrogen and iron conditions in vivo, and the inherent difficulty of eliminating confounding variables with study in human subjects, applicants developed two cell culture models to test whether increase in body iron contributes to menopausal symptoms and diseases (FIG. 4). The concentration of 17β-estradiol (E2) were set at levels equivalent to breast tissue levels under pre-menopausal conditions (Parl F. F., “Estrogens, Estrogen Receptor and Breast Cancer,” Oxford: IOS Press, (2000), which is hereby incorporated by reference in its entirety). Ferritin levels were equal to 10% serum, given that the physiological upper limit of serum ferritin is 200 ng/ml. Twenty ng/ml of ferritin was used in the culture media. Transferrin was added in its wholly unsaturated form (apo-transferrin), or its fully 100% iron saturated (holo-transferrin), at 5 μg/ml, to the pre- and post-menopausal conditions, respectively. Serum-free alpha minimum essential medium (α-MEM) was used as the base medium for breast cancer MCF-7 cells, osteoblast progenitor C2C12 cells, and osteoclast progenitor Raw 264.7 cells. MCF-7 was supplemented with selenium (5 ng/ml) and insulin (5 μg/ml). C2C12 and Raw 264.7 cells were supplemented with bone morphorgenetic protein-2 (BMP-2) and receptor activator of nuclear factor kappa B ligand (RANKL) to stimulate their differentiation and maturation to ostoeblasts and osteoclasts, respectively. Epilife® basal medium was used for the culture of primary normal human epidermal keratinocytes (NHEK) cells.
E2, transferrin, and ferritin were analyzed separately in MCF-7 cell cultures to determine their relative contribution to alterations in VEGF levels.

[2] = tested on: mouse osteoblast C2C12 cells; test: Alkaline phosphatase (osteoblast differentiation) in C2C12 cells; type: cell-based
Experimental: FIGS. 18A-F show differences in alkaline phosphates (ALP) activities in mouse osteoblast C2C12 cells grown in medium only (FIG. 18A), with bone morphorgenetic protein-2 (BMP-2) (FIG. 18B), under the pre-menopausal (FIG. 18C), post-menopausal (FIG. 18D), with ferritin (FIG. 18E), and with deferoxamine (DFO) (FIG. 18F). DFO, an iron chelator, (10 μM) or ferritin alone (20 ng/mL) was used in the presence of BMP-2 at 50 ng/ml.
Due to the deficit of appropriate animal models that recapitulate estrogen and iron conditions in vivo, and the inherent difficulty of eliminating confounding variables with study in human subjects, applicants developed two cell culture models to test whether increase in body iron contributes to menopausal symptoms and diseases (FIG. 4). The concentration of 17β-estradiol (E2) were set at levels equivalent to breast tissue levels under pre-menopausal conditions (Parl F. F., “Estrogens, Estrogen Receptor and Breast Cancer,” Oxford: IOS Press, (2000), which is hereby incorporated by reference in its entirety). Ferritin levels were equal to 10% serum, given that the physiological upper limit of serum ferritin is 200 ng/ml. […]
To investigate whether increased iron levels affect the balance between bone formation and bone resorption, mouse osteoblasts C2C12 and osteoclasts Raw 264.7 cells were cultured in the two distinct media. […] Cell proliferation was then measured.

[3] = tested on: C2C12 cells; test: C2C12 cell proliferation; type: cell-based, mouse; settings: 3 and 5 days
Experimental: To investigate whether increased iron levels affect the balance between bone formation and bone resorption, mouse osteoblasts C2C12 and osteoclasts Raw 264.7 cells were cultured in the two distinct media. […] In other experiments, the iron chelator deferoxamine (DFO), promoted alkaline phosphatase production, whereas ferritin diminished it. […] To further search how increased iron affect osteoblasts, C2C12 cells were grown in the presence of E2 or iron over a period of 3 and 5 days. Cell proliferation was then measured.

[4] = mice, single 50 μg intraperitoneal injection, for 3 days; cited from earlier work
[5] = tested on: CYP1A1; test: CYP1A1 mRNA induction in MCF-12A cells; type: cell-based, human; settings: ferritin at as little as 10 ng/ml
Description: (§1) It was also investigated whether increased iron as a result of menopause affects estrogen metabolisms. It is known that 95% of serum E2 in premenopausal women is derived from ovarian secretion and subsequently distributed through the bloodstream in an endocrine fashion. Almost all of the circulating E2 in postmenopausal women is from extragonadal conversion of C19 steroid precursors, principally weak adrenal androgens (FIG. 26). The conversion occurs locally in tissues such as adipose and bone marrow and E2 acts in a paracrine fashion. […] The first step in the metabolism of estrogens is the hydroxylation catalyzed by cytochrome P450 enzymes such as CYP1A1 and CYP1B1, leading to the formation of 2-hydroxyl-E2 (2-OH-E2) and 4-OH-E2, respectively (Tsuchiya et al., “Cytochrome P450-mediated Metabolism of Estrogens and Its Regulation In Humans,” Cancer Leu 227, 115-24 (2005), which is hereby incorporated by reference in its entirety).

[6] = tested on: CYP1B1; test: CYP1B1 mRNA induction in MCF-12A cells; type: cell-based, human; settings: ferritin at as little as 10 ng/ml
Description: as §1

[7] = tested on: CYP19A1; test: CYP19A1 mRNA induction in MCF-12A cells; type: cell-based, human; settings: ferritin at as little as 10 ng/ml
Description: as §1

[8] = Effects of hepcidin on mice: serum iron and transferrin saturation after 8 weeks of i.p. treatment; type: in vivo; settings: 1.5 mg/kg i.p. twice a week for 8 weeks, versus control mice or mice treated with DFO
Experimental: Human body has many ways to absorb, transfer, and store iron but has no effective ways to excrete it (Andrews N. C., “Disorders of Iron Metabolism,” N Engl J Med 341:1986-95 (1999), which is hereby incorporated by reference in its entirety). Menstruation, which can get rid of iron in young premenopausal women, is not optional in older postmenopausal women. Therefore, hepcidin and deferoxamine (DFO), a FDA-approved iron chelator, were tested to see whether hepcidin or DFO can inhibit iron absorption and decrease body iron levels. After overnight fasting, mice were injected intra-peritoneally (i.p.), twice a week, with hepcidin at 1.5 mg/kg, DFO at 400 mg/kg, or saline (control) with 10 mice per group. After 8 weeks consecutive treatment, mice were sacrificed and blood were collected by heart puncture. Serum samples were used for measurements of serum iron and transferrin saturation.

C[C@]12CC[C@@H]3c4ccc(O)cc4CC[C@H]3[C@@H]1CC[C@@H]2O [E2, 17β-estradiol]
VEGF formation ([1]; various concentrations): some increase | osteoblast differentiation, as measured by alkaline phosphates activity ([2]; C2C12 cells): slightly stimulated | cell proliferation [3]: did not increase

Asp-Thr-His-Phe-Pro-Ile-Cys-Ile-Phe-Cys-Cys-Gly-Cys-Cys-His-Arg-Ser-Lys-Cys-Gly-Met-Cys-Cys-Lys-Thr (DTHFPICIFCCGCCHRSKCGMCCKT; listed as Homo sapiens) [human hepcidin]
fall in serum iron [4]: 70%

apo-transferrin: transferrin in its wholly unsaturated form, without iron in it
VEGF formation ([1]; various concentrations): no effect

ferritin
VEGF formation ([1]; various concentrations): significantly decreases | alkaline phosphatase production ([2]; C2C12 cells with BMP-2 at 50 ng/ml, DFO 10 μM, ferritin 20 ng/mL): diminished | CYP1A1 mRNA levels [5]: significantly increased | CYP1B1 mRNA levels [6]: significantly increased | CYP19A1 mRNA levels [7]: not

hepcidin: peptide hormone, principal regulator of iron homeostasis; binds ferroportin (DTHFPICIFCCGCCHRSKCGMCCKT; listed as Homo sapiens)
levels of serum iron [8]: significantly lower | transferrin saturation [8]: significantly lower

transferrin: iron transport protein with two binding sites for iron, tested at different iron saturation
VEGF formation ([1]; transferrin 5 μg/ml at various iron saturation levels): no effect
